Our source for the IC50 values is patent US6355673B1, “Substituted diaminocarboxylic acids” (Aventis Pharma Deutschland GmbH, priority 1997, dated 2002).

For one assay, the target named is T1, stromelysin (MMP-3) (Homo sapiens, UniProt P08254).
T1 construct: enzymatic activity of the catalytic domains of human stromelysin and of neutrophil collagenase; made in house
The assay is described as follows: Enzyme inhibition of the catalytic domain of human stromelysin (fluorogenic substrate). The assay is classed as biochemical. Conditions: 15 min preincubation, pH=6.5, fluorescence 328 nm (ex)/393 nm (em). In a few lines: (§1)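 Recombinant catalytic domains of MMP-3 or MMP-8 were preincubated 15 min with compound in Tris/NaCl/CaCl2/PIPES buffer with 0.05% Brij, pH 6.5. Reaction was started with Mca-Pro-Leu-Gly-Leu-Dpa-Ala-Arg-NH2 and followed by fluorescence (328/393 nm) as rate per min; IC50 was the concentration giving 50% inhibition.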

Assay [1] has as its target T2, neutrophil collagenase (MMP-8) (Homo sapiens, UniProt P22894).
T2 construct: enzymatic activity of the catalytic domains of human stromelysin and of neutrophil collagenase; made in house
The assay is described as follows: Enzyme inhibition of the catalytic domain of neutrophil collagenase (fluorogenic substrate). It is filed as biochemical. The following applies: 15 min preincubation, pH=6.5, fluorescence 328 nm (ex)/393 nm (em). In a few lines: as §1

T2 sequence (P22894 100-262 limits assumed): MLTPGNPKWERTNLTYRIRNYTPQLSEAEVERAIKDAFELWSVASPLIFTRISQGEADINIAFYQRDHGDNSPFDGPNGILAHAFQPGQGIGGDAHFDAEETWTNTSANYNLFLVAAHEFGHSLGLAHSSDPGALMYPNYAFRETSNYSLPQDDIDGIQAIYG
T1 sequence (P08254 100-272 limits assumed): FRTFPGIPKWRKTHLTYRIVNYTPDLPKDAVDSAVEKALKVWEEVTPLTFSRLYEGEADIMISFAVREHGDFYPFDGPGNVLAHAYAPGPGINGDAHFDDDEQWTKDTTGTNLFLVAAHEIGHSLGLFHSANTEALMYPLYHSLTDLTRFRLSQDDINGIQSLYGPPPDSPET

As a reminder, the IC50 is the concentration needed to halve the response being measured. With `O=C(NCCC[C@H](NS(=O)(=O)c1ccc(-c2ccc(Cl)cc2)cc1)C(=O)O)c1cccc(C(F)(F)F)c1` [Example 130], the half-maximal inhibitory concentration (IC50) stood at 0.02 µM against stromelysin (MMP-3) and 0.004 µM in assay [1].
For `O=C(/C=C/c1ccc(F)cc1)NCCC[C@H](NS(=O)(=O)c1ccc(-c2ccc(Cl)cc2)cc1)C(=O)O` [Example 131] the same measures were 0.02 µM and 0.005 µM.
As for `O=C(/C=C/c1ccc(Cl)cc1)NCCC[C@H](NS(=O)(=O)c1ccc(-c2ccc(Cl)cc2)cc1)C(=O)O` [Example 132], the concentration for half-maximal inhibition (IC50) on stromelysin (MMP-3) turned out to be 0.03 µM; in assay [1], 0.01 µM.
`O=C(CCc1ccccc1)NCCC[C@H](NS(=O)(=O)c1ccc(-c2ccc(Cl)cc2)cc1)C(=O)O` [Example 133]: the IC50 at stromelysin (MMP-3) was 0.005 µM; in assay [1], 0.002 µM.
As to `O=C(O)[C@H](CCCN1C(=O)c2ccccc2S1(=O)=O)NS(=O)(=O)c1ccc(-c2ccc(Cl)cc2)cc1` [Example 134], the concentration for half-maximal inhibition (IC50) worked out at 0.005 µM on stromelysin (MMP-3) and 0.002 µM in assay [1].
The matching figures for `N#Cc1ccccc1C(=O)NCCC[C@H](NS(=O)(=O)c1ccc(-c2ccc(Cl)cc2)cc1)C(=O)O` [Example 135]: 0.03 µM and 0.008 µM.
Take `CN(C)c1ccc(C(=O)NCCC[C@H](NS(=O)(=O)c2ccc(-c3ccc(Cl)cc3)cc2)C(=O)O)cc1` [Example 136]: the 50% inhibitory concentration (IC50) on stromelysin (MMP-3) turned out to be 0.01 µM; in assay [1] it was 0.007 µM.
For `CN(C)c1ccccc1C(=O)NCCC[C@H](NS(=O)(=O)c1ccc(-c2ccc(Cl)cc2)cc1)C(=O)O` [Example 137] the same measures were 0.02 µM and 0.007 µM.
The matching figures for `Cc1cc(C(=O)NCCC[C@H](NS(=O)(=O)c2ccc(-c3ccc(Cl)cc3)cc2)C(=O)O)ccc1[N+](=O)[O-]` [Example 138]: 0.03 µM and 0.01 µM.
For `COc1cccc(OC)c1C(=O)NCCC[C@H](NS(=O)(=O)c1ccc(-c2ccc(Cl)cc2)cc1)C(=O)O` [Example 139] the same measures were 0.05 µM and 0.02 µM.
Take `O=C(/C=C/C1C=NC=N1)NCCC[C@H](NS(=O)(=O)c1ccc(-c2ccc(Cl)cc2)cc1)C(=O)O` (stereo partly shown) [Example 140]: the half-inhibitory concentration (IC50) was determined as 0.06 µM against stromelysin (MMP-3) and 0.02 µM in assay [1].
With `O=C(NCCC[C@H](NS(=O)(=O)c1ccc(-c2ccc(Cl)cc2)cc1)C(=O)O)c1ccc2[nH]cnc2c1` [Example 141], the IC50 (at stromelysin (MMP-3); in assay [1]) was 0.01 µM each time.
`NS(=O)(=O)c1ccc(C(=O)NCCC[C@H](NS(=O)(=O)c2ccc(-c3ccc(Cl)cc3)cc2)C(=O)O)cc1` [Example 142]: the figures for the IC50 (on stromelysin (MMP-3); in assay [1]) were 0.01 µM and 0.004 µM, respectively.
`O=C(O)[C@H](CCCNC(=O)N1CCCC1)NS(=O)(=O)c1ccc(-c2ccc(Cl)cc2)cc1` [Example 143]: the IC50 at stromelysin (MMP-3) is 0.005 µM; in assay [1], 0.002 µM.
The matching figures for `CN(CCC[C@H](NS(=O)(=O)c1ccc(-c2ccc(Cl)cc2)cc1)C(=O)O)C(=O)C1CC1` [Example 144]: 0.01 µM and 0.003 µM.
For `CN(CCC[C@H](NS(=O)(=O)c1ccc(-c2ccc(Cl)cc2)cc1)C(=O)O)Cc1ccccc1` [Example 145] the same measures were 0.01 µM and 0.005 µM.
For `CC(C)(C)OC(=O)NCCC[C@H](NS(=O)(=O)c1ccc(-c2ccccc2)cc1)C(=O)O` [Example 146] the same measures were 0.03 µM and 0.003 µM.
Regarding `COc1ccccc1C(=O)NCCC[C@H](NS(=O)(=O)c1ccc(-c2ccc(Cl)cc2)cc1)C(=O)O` [Example 151], the figures for the half-inhibitory concentration (IC50) (at stromelysin (MMP-3); in assay [1]) were 0.03 µM and 0.01 µM, respectively.
The matching figures for `COc1cccc(C(=O)NCCC[C@H](NS(=O)(=O)c2ccc(-c3ccc(Cl)cc3)cc2)C(=O)O)c1` [Example 152]: 0.06 µM and 0.01 µM.
The matching figures for `Cn1cccc1C(=O)NCCC[C@H](NS(=O)(=O)c1ccc(-c2ccc(Cl)cc2)cc1)C(=O)O` [Example 154]: 0.03 µM and 0.009 µM.
